These results are taken from patent US11554171B2, “Compounds and methods for the targeted degradation of bromodomain-containing proteins” (Arvinas Operations, Inc., priority 2015, dated 2023).

Broadly, the DC50 is the concentration giving 50% degradation.

This assay concerns c-myc in 22RV-1 cells. Description: Human c-myc ELISA assay. It is filed as cell-based. The note with it: Homo sapiens; for Emax: 22Rv1, 18 h, read-out: Degradation of BRD4: Maximum inhibition (%) c-Myc ELISA in 22RV1 cells; for DC50: 22Rv1, read-out: Degradation of BRD4: DC50 (uM) c-Myc ELISA in 22RV1 cells. A digest of the protocol:
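22RV-1 cells treated 18 h with 8-point 1:3 compound dilutions (final top 300 nM or 1 μM, 0.1% DMSO). Cells lysed in RIPA buffer with protease/phosphatase inhibitors, and c-myc protein in cleared lysate quantified by ELISA against a standard curve. DC50 reported for c-myc suppression.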

As for `Cc1sc2c(c1C)C(c1ccc(Cl)cc1)=N[C@@H](CC(=O)N[C@H]1C[C@@H](Oc3cccc(-c4cnn([C@@H](C(=O)N5C[C@H](O)C[C@H]5C(=O)N[C@@H](C)c5ccc(-c6nccn6C)cc5)C(C)C)c4)c3)C1)c1nnc(C)n1-2` [Example 290], the Emax turned out to be 15.5% and the DC50 is above 1 µM.

In the case of `Cc1ncsc1-c1ccc(CNC(=O)[C@@H]2C[C@@H](O)CN2C(=O)[C@@H](NC(=O)COCCn2cc(-c3ccc([C@@H](C)NC(=O)C[C@@H]4N=C(c5ccc(Cl)cc5)c5c(sc(C)c5C)-n5c(C)nnc54)cc3)cn2)C(C)(C)C)cc1` [Example 78], the Emax turned out to be 86.7% and the DC50 fell in the range of 0.1 to 1 µM.

Consider `Cc1ncsc1-c1ccc([C@H](C)NC(=O)[C@@H]2C[C@@H](O)CN2C(=O)[C@@H](C(C)C)n2cc(-c3ccnc(N4CC[C@@H](NC(=O)C[C@@H]5N=C(c6ccc(Cl)cc6)c6c(sc(C)c6C)-n6c(C)nnc65)C4)c3)cn2)cc1` [Example 267], for which the Emax is 51.4% and the DC50 was above 1 µM.

Take `Cc1ncsc1-c1ccc([C@H](C)NC(=O)[C@@H]2C[C@@H](O)CN2C(=O)[C@@H](NC(=O)COc2ccc(O[C@H]3C[C@@H](NC(=O)C[C@@H]4N=C(c5ccc(Cl)cc5)c5c(sc(C)c5C)-n5c(C)nnc54)C3)nc2)C(C)(C)C)cc1` [Example 119, (2S,4R)-1-[(2S)-3,3-dimethyl-2-[2-({6-[(1,3-cis)-3-{2-[(9S)-7-(4-chlorophenyl)-4,5,13-trimethyl-3-thia-1,8,11,12-tetraazatricyclo[8.3.0.0^2,^6]trideca-2(6),4,7,10,12-pentaen-9-yl]acetamido}cyclobutoxy]pyridin-3-yl}oxy)acetamido]butanoyl]-4-hydroxy-N-[(1S)-1-[4-(4-methyl-1,3-thiazol-5-yl)phenyl]ethyl]pyrrolidine-2-carboxamide]: the Emax came out at 96% and the DC50 was below 0.01 µM.

`Cc1sc2c(c1C)C(c1ccc(Cl)cc1)=N[C@@H](CC(=O)N[C@H]1C[C@H](Oc3ccc(CC(=O)N[C@H](C(=O)N4C[C@H](O)C[C@H]4C(=O)N[C@@H](C)c4ccc(-n5ccnc5C)cc4)C(C)(C)C)cc3)C1)c1nnc(C)n1-2` [Example 272]: the Emax was determined as 95.9% and the DC50 was in the range of 0.01 to 0.1 µM.

Regarding `Cc1ncsc1-c1ccc(CNC(=O)[C@@H]2C[C@@H](O)CC2C(=O)[C@@H](NC(=O)CO[C@H]2CCN(c3ccc([C@@H](C)NC(=O)C[C@@H]4N=C(c5ccc(Cl)cc5)c5c(sc(C)c5C)-n5c(C)nnc54)cc3)C2)C(C)(C)C)cc1` (some centres unmarked) [Example 66], the Emax came to 89.4% and the DC50 is 0.01 to 0.1 µM.

In the case of `Cc1ncsc1-c1ccc(CNC(=O)[C@@H]2C[C@@H](O)CN2C(=O)[C@@H](NC(=O)COCCCOCC#Cc2ccc([C@@H](C)NC(=O)C[C@@H]3N=C(c4ccc(Cl)cc4)c4c(sc(C)c4C)-n4c(C)nnc43)cc2)C(C)(C)C)cc1` [Example 39, (2S,4R)-1-[(2S)-2-(2-{3-[(3-{4-[(1R)-1-{2-[(9S)-7-(4-chlorophenyl)-4,5,13-trimethyl-3-thia-1,8,11,12-tetraazatricyclo[8.3.0.0^2,^6]trideca-2(6),4,7,10,12-pentaen-9-yl]acetamido}-ethyl]phenyl}prop-2-yn-1-yl)oxy]propoxy}acetamido)-3,3-dimethylbutanoyl]-4-hydroxy-N-{[4-(4-methyl-1,3-thiazol-5-yl)phenyl]methyl}pyrrolidine-2-carboxamide], the Emax worked out at 99% and the DC50 lay in the range of 0.01 to 0.1 µM.

Regarding `Cc1sc2c(c1C)C(c1ccc(Cl)cc1)=N[C@@H](CC(=O)N[C@H]1C[C@H](Oc3ccc(CC(=O)N[C@H](C(=O)N4C[C@H](O)C[C@H]4C(=O)N[C@@H](C)c4ccc(-c5nccn5C)cc4)C(C)(C)C)cc3)C1)c1nnc(C)n1-2` [Example 273], the Emax is below 5% and the DC50 was above 1 µM.

Take `Cc1ncsc1-c1ccc([C@H](C)NC(=O)[C@@H]2C[C@@H](O)CN2C(=O)[C@@H](NC(=O)COc2cc(F)cc(O[C@H]3C[C@@H](NC(=O)C[C@@H]4N=C(c5ccc(Cl)cc5)c5c(sc(C)c5C)-n5c(C)nnc54)C3)c2)C(C)(C)C)cc1` [Example 209]: the Emax was determined as 90% and the DC50 was below 0.01 µM.

As for `Cc1ncsc1-c1ccc([C@H](C)NC(=O)[C@@H]2C[C@@H](O)CN2C(=O)[C@@H](NC(=O)c2cc3cc(OCCCNC(=O)C[C@@H]4N=C(c5ccc(Cl)cc5)c5c(sc(C)c5C)-n5c(C)nnc54)ccc3o2)C(C)(C)C)cc1` [Example 170, (2S,4R)-1-[(2S)-2-{[5-(3-{2-[(9S)-7-(4-chlorophenyl)-4,5,13-trimethyl-3-thia-1,8,11,12-tetraazatricyclo[8.3.0.0^2,^6]trideca-2(6),4,7,10,12-pentaen-9-yl]acetamido}propoxy)-1-benzofuran-2-yl]formamido}-3,3-dimethylbutanoyl]-4-hydroxy-N-[(1S)-1-[4-(4-methyl-1,3-thiazol-5-yl)phenyl]ethyl]pyrrolidine-2-carboxamide], the Emax came to 97% and the DC50 was below 0.01 µM.

Turning to `Cc1ncsc1-c1ccc([C@H](C)NC(=O)[C@@H]2C[C@@H](O)CN2C(=O)[C@@H](NC(=O)COc2ccnc(O[C@H]3C[C@H](NC(=O)C[C@@H]4N=C(c5ccc(Cl)cc5)c5c(sc(C)c5C)-n5c(C)nnc54)C3)c2)C(C)(C)C)cc1` [Example 227], the Emax stood at 100% and the DC50 was below 0.01 µM.

With `Cc1ncsc1-c1ccc(CNC(=O)[C@@H]2C[C@@H](O)CN2C(=O)[C@@H](NC(=O)COCCOCCOCCCOCCOCCN(C)C(=O)C[C@@H]2N=C(c3ccc(Cl)cc3)c3c(sc(C)c3C)-n3c(C)nnc32)C(C)(C)C)cc1` [Example 17, (2S,4R)-1-[(2S)-2-(18-{2-[(9S)-7-(4-chlorophenyl)-4,5,13-trimethyl-3-thia-1,8,11,12-tetraazatricyclo[8.3.0.0^2,^6]trideca-2(6),4,7,10,12-pentaen-9-yl]-N-methylacetamido}-3,6,9,13,16-pentaoxaoctadecanamido)-3,3-dimethylbutanoyl]-4-hydroxy-N-{[4-(4-methyl-1,3-thiazol-5-yl)phenyl]methyl}pyrrolidine-2-carboxamide], the Emax came to 85% and the DC50 fell in the range of 0.1 to 1 µM.

Take `Cc1ncsc1-c1ccc(CNC(=O)[C@@H]2C[C@@H](O)CN2C(=O)[C@@H](NC(=O)CCc2cccc(OCCNC(=O)C[C@@H]3N=C(c4ccc(Cl)cc4)c4c(sc(C)c4C)-n4c(C)nnc43)c2)C(C)(C)C)cc1` [Example 84]: the Emax is 100% and the DC50 was below 0.01 µM.

Take `Cc1ncsc1-c1ccc(CNC(=O)[C@@H]2C[C@@H](O)CN2C(=O)[C@@H](NC(=O)COCCOCCOCCCCOCCOCCNC(=O)C[C@@H]2N=C(c3ccc(Cl)cc3)c3c(sc(C)c3C)-n3c(C)nnc32)C(C)(C)C)cc1` [Example 9]: the Emax is 96.4% and the DC50 lay within 0.1 to 1 µM.

As to `Cc1ncsc1-c1ccc([C@H](C)NC(=O)[C@@H]2C[C@@H](O)CN2C(=O)[C@@H](NC(=O)CCc2ccnc(O[C@H]3C[C@@H](NC(=O)C[C@@H]4N=C(c5ccc(Cl)cc5)c5c(sc(C)c5C)-n5c(C)nnc54)C3)c2)C(C)(C)C)cc1` [Example 191], the Emax is 95% and the DC50 was below 0.01 µM.

In the case of `Cc1ncsc1-c1ccc([C@H](C)NC(=O)[C@@H]2C[C@@H](O)CN2C(=O)[C@@H](C(C)C)n2cc(-c3cnc(O[C@H]4C[C@H](NC(=O)C[C@@H]5N=C(c6ccc(Cl)cc6)c6c(sc(C)c6C)-n6c(C)nnc65)C4)cn3)cn2)cc1` [Example 283], the Emax stood at 89.5% and the DC50 was 0.01 to 0.1 µM.
